Each structure is given as a SMILES string. Where two headings read alike, the source gives them in different places.

These results are taken from patent US12516056B2, “Compounds for inhibition of janus kinase 1” (MANKIND PHARMA LTD., priority 2019, dated 2026).

For one test, the target named is T1, Recombinant TYK2 (Homo sapiens, UniProt P29597).
T1 construct: purchased Carna Biosciences
Kind of test: JAK biochemical assay (LANCE Ultra TR-FRET), TYK2. Conditions: recombinant TYK2, TR-FRET; read-out: Biochemical Assay (μM) TYK2. A digest of the protocol:
(§1)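 TR-FRET read-out of ULight substrate phosphorylation by recombinant kinase gives % inhibition relative to vehicle. The assay buffer is HEPES pH 7.5 with EGTA, MgCl2, DTT and Tween-20.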
Background: TR-FRET usually uses a lanthanide donor and a delayed reading to cut background.

In another test the target is T2, Recombinant JAK2 (Homo sapiens, UniProt O60674).
T2 construct: purchased Carna Biosciences
T2 sequence (O60674 whole entry): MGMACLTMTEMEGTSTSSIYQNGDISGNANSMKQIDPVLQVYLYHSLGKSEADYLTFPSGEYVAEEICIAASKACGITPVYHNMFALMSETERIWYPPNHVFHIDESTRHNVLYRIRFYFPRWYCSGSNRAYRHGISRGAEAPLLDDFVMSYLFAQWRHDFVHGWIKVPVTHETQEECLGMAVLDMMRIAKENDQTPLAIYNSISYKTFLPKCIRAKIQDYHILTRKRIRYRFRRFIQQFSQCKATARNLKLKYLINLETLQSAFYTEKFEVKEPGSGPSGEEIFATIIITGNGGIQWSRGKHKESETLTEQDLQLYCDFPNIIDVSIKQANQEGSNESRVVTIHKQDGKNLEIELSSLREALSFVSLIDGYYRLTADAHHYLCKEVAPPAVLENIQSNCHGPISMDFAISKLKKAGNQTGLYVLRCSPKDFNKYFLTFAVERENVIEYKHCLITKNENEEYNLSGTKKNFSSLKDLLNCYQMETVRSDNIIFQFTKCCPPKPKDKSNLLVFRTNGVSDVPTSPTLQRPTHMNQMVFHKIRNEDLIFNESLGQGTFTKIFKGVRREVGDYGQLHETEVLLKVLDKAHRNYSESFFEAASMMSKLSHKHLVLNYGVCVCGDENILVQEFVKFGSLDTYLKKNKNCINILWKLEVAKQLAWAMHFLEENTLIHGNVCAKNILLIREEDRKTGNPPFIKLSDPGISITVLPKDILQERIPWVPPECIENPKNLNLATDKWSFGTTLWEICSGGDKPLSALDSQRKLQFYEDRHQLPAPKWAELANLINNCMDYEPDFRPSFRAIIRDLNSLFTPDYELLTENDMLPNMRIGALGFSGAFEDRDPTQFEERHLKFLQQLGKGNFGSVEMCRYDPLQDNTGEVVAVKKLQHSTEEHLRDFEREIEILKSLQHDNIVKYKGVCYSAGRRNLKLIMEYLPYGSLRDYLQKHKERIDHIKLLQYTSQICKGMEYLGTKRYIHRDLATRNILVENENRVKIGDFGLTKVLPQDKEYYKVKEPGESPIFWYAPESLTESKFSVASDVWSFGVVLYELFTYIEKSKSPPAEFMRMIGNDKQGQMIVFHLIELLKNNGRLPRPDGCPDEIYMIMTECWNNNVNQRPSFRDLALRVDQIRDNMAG
Kind of test: JAK biochemical assay (LANCE Ultra TR-FRET), JAK2. To be noted: recombinant JAK2, TR-FRET; read-out: Biochemical Assay (μM) JAK2. A digest of the protocol: as §1

Test [1] relates to STAT5 phosphorylation by IL-2 in HT-2 cells. Kind of test: STAT5 phosphorylation by IL-2 in HT-2 cells (HTRF). Conditions: IL-2 50 U/ml, pSTAT5 HTRF, read-out: Cell Based Assay (μM) HT-2/IL-2/pSTAT5. The test is classed as cell-based. The method, then:
HT-2 cells were starved […] in RPMI phenol red with 10% fetal bovine serum for 4 hours in CO2 incubator maintained at 37° c. Compounds were diluted in DMSO and added to 96 well plate containing a final density of 1,20,000 cells per well. Cells and compounds are incubated for 30 minutes in CO2 incubator maintained at 37° C. and final DMSO concentration in cell based assay was 0.2%. Human recombinant cytokine, IL-2 (50 U/ml) was added to the plate containing cells and compound and incubated for 20 minutes with gentle tapping/shaking at every 5 minutes once. Compound mediated effects on STAT5 phosphorylation was measured in the lysates prepared by using CISBIO pSTAT5 detection kit by HTRF method. Background signal obtained from cells which were not activated with cytokines, was subtracted from vehicle controls and compound treated wells.

In another test the target is T3, Recombinant JAK1 (Homo sapiens, UniProt P23458).
T3 construct: purchased Carna Biosciences
T3 sequence (P23458 whole entry): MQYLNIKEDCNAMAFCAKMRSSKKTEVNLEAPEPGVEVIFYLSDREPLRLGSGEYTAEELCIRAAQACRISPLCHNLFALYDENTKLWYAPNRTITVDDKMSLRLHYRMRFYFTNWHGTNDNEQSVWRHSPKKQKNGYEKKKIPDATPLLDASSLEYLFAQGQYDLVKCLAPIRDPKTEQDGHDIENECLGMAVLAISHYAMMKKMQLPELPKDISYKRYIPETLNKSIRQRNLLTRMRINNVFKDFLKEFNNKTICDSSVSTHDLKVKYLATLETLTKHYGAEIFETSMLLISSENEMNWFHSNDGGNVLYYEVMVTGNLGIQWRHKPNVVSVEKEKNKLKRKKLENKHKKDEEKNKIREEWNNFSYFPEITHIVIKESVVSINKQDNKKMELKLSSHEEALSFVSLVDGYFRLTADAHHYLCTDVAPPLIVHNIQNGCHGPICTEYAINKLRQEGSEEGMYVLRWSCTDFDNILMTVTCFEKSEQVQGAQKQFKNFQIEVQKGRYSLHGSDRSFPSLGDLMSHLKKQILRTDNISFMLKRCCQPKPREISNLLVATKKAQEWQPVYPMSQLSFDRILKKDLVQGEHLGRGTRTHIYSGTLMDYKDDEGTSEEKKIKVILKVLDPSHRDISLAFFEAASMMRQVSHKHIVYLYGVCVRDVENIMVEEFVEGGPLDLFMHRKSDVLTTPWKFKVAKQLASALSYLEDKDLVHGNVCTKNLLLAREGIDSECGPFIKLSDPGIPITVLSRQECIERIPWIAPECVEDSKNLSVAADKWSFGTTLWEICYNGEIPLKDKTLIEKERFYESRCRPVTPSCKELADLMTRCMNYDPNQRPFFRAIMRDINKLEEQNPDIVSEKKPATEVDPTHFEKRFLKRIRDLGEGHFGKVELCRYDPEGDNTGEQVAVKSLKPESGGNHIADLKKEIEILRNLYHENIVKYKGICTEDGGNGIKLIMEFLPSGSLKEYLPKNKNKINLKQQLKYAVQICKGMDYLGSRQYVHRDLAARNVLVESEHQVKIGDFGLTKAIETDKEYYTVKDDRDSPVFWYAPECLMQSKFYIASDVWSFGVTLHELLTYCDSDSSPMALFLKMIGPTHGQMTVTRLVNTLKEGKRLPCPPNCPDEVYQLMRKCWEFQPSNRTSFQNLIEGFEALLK
Nature of the test: JAK biochemical assay (LANCE Ultra TR-FRET), JAK1. Conditions: recombinant JAK1, TR-FRET; read-out: Biochemical Assay (μM) JAK1. An outline of the steps: as §1

In test [2] the test system is STAT3 phosphorylation by IL-6 in TF-1 cells. Kind of test: JAK cellular assay: STAT3 phosphorylation by IL-6 in TF-1 cells (HTRF). The class given is cell-based. Conditions: IL-6 30 ng/ml, pSTAT3 HTRF, read-out: Cell Based Assay (μM) TF-1/IL-6/pSTAT3. A digest of the protocol:
(§2)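 TF-1 cells starved overnight in low-serum OptiMEM, then 120,000/well in RPMI, preincubated with compound 30 min at 37 °C (0.2% DMSO final). Stimulation 20 min with IL-6 30 ng/ml (pSTAT3) or GMCSF 5 ng/ml (pSTAT5); lysate phospho-STAT by HTRF, unstimulated background subtracted.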

The test system of test [3] is STAT5 phosphorylation by GMCSF in TF-1 cells. Nature of the test: JAK cellular assay: STAT5 phosphorylation by GMCSF in TF-1 cells (HTRF). The class given is cell-based. To be noted: Homo sapiens; TF-1 cells, GMCSF 5 ng/ml, pSTAT5 HTRF; read-out: Cell Based Assay (μM) TF-1/GMCSF/pSTAT5. An outline of the steps: as §2
In another test the target is T4, Recombinant JAK3 (Homo sapiens, UniProt P52333).
T4 construct: purchased Carna Biosciences
T4 sequence (P52333 1-1124): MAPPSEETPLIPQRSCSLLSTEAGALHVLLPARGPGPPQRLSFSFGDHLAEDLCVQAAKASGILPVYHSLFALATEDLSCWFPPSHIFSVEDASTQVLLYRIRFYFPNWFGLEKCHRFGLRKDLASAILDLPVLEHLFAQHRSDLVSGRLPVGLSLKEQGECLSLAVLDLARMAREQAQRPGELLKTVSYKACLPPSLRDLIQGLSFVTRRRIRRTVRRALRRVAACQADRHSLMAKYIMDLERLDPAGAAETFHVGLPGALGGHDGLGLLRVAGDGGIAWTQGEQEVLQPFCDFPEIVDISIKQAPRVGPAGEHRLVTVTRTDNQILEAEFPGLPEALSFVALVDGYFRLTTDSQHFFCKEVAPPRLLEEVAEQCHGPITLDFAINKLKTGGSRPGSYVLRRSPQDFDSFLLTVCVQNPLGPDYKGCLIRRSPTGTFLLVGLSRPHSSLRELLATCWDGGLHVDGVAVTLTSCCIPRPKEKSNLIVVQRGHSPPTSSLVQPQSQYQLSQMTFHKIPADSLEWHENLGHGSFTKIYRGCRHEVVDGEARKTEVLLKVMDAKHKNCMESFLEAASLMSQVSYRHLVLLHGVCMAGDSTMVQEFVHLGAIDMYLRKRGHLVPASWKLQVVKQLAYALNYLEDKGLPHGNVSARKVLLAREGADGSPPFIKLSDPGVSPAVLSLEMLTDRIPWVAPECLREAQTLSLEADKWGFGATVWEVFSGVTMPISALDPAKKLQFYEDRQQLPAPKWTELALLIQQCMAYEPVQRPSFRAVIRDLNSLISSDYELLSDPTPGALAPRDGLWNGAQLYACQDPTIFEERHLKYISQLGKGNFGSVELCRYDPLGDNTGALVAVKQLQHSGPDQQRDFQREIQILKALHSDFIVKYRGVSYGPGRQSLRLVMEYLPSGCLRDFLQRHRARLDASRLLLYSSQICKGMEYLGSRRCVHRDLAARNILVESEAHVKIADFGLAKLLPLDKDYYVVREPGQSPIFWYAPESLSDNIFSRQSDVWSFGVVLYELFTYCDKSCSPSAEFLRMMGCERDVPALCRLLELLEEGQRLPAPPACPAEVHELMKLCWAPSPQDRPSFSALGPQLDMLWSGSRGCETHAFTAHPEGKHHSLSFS
Kind of test: JAK biochemical assay (LANCE Ultra TR-FRET), JAK3. To be noted: recombinant JAK3, TR-FRET; read-out: Biochemical Assay (μM) JAK3. A digest of the protocol: as §1

T1 sequence (P29597 whole entry): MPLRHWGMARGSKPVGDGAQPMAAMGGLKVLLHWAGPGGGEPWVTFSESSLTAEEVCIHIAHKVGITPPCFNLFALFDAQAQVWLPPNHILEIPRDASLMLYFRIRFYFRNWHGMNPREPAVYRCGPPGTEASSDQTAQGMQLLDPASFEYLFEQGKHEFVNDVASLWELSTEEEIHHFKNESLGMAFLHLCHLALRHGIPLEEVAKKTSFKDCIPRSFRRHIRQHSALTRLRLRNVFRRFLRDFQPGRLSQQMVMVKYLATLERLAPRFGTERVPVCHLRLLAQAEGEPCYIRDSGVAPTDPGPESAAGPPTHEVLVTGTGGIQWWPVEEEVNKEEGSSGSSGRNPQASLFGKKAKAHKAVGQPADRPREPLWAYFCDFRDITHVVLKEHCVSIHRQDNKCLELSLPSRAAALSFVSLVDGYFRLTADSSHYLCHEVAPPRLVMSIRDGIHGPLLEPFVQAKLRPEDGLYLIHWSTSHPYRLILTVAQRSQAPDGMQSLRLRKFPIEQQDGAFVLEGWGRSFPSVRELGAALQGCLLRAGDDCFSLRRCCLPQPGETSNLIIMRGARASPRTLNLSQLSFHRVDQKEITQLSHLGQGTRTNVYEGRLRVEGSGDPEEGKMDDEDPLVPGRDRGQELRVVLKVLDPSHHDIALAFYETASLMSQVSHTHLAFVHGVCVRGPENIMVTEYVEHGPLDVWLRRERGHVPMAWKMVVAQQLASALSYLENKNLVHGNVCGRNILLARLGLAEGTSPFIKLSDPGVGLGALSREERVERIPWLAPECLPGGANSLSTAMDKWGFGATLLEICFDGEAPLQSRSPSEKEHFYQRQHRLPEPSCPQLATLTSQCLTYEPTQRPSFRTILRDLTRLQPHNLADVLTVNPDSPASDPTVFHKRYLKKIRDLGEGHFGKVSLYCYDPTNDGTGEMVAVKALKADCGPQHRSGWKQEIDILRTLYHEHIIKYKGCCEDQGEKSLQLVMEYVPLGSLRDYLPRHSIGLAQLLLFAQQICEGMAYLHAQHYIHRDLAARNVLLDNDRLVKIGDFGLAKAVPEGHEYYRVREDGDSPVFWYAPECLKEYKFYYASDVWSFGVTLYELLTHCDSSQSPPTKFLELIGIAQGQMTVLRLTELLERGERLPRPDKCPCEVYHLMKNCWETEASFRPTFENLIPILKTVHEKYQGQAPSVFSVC

Take `OC(c1ccc(-n2cc(-c3ccnc4[nH]cnc34)cn2)nc1)(C1CC1)C(F)(F)F` (stereo not drawn) [Example 1126, 1-(6-(4-(3H-imidazo[4,5-b]pyridin-7-yl)-1H-pyrazol-1-yl)pyridin-3-yl)-1-cyclopropyl-2,2,2-trifluoroethanol]: the IC50 on Recombinant TYK2 is above 1 µM; at Recombinant JAK2 it was 0.036 µM; in test [1] (HT2, HT-2 cells), below 1 µM; at Recombinant JAK1, 0.003 µM; in test [2] (Homo sapiens, TF-1, TF-1 cells) it was 0.34 µM; in test [3], above 1 µM. The IC50 at Recombinant JAK3 came to 0.007 µM.

Consider `CC(C)C(O)(c1ccc(-n2cc(-c3ccnc4[nH]cnc34)cn2)nc1)C(F)(F)F` (stereo not drawn) [Example 1129, 2-(6-(4-(3H-imidazo[4,5-b]pyridin-7-yl)-1H-pyrazol-1-yl)pyridin-3-yl)-1,1,1-trifluoro-3-methylbutan-2-ol], for which the IC50 was above 1 µM at Recombinant TYK2; above 0.1 µM at Recombinant JAK2; above 1 µM in test [1] (HT2, HT-2 cells); below 0.1 µM on Recombinant JAK1; above 0.5 µM in test [2] (Homo sapiens, TF-1, TF-1 cells); above 10 µM in test [3]. The IC50 at Recombinant JAK3 was below 0.1 µM.

On to `CC(C)N1CCC([C@](O)(c2ccc(-n3cc(-c4ccnc5[nH]cnc45)cn3)nc2)C(F)(F)F)C1` (stereo partly drawn) [Example 1226, (S)-1-(6-(4-(3H-imidazo[4,5-b]pyridin-7-yl)-1H-pyrazol-1-yl)pyridin-3-yl)-2,2,2-trifluoro-1-(1-isopropylpyrrolidin-3-yl)ethanol], for which the IC50 was above 1 µM at Recombinant TYK2; above 0.03 µM at Recombinant JAK2; above 0.75 µM in test [1] (HT2, HT-2 cells); below 0.01 µM at Recombinant JAK1; above 0.5 µM in test [2] (Homo sapiens, TF-1, TF-1 cells); above 1 µM in test [3]. At Recombinant JAK3, the IC50 was above 0.03 µM.

Turning to `CS(=O)(=O)CCC(c1ccc(-n2cc(-c3ccnc4[nH]cnc34)cn2)nc1)C(F)(F)F` (stereo not drawn) [Example 1174, 7-(1-(5-(1,1,1-trifluoro-4-(methylsulfonyl)butan-2-yl)pyridin-2-yl)-1H-pyrazol-4-yl)-3H-imidazo[4,5-b]pyridine], the IC50 was above 1 µM on Recombinant TYK2; 0.108 µM on Recombinant JAK2; 1.3 µM in test [1] (HT2, HT-2 cells); 0.018 µM at Recombinant JAK1; 0.3 µM in test [2] (Homo sapiens, TF-1, TF-1 cells); above 10 µM in test [3]. In addition, the IC50 at Recombinant JAK3 is 0.055 µM.

Turning to `OCCC(c1ccc(-n2cc(-c3ccnc4[nH]cnc34)cn2)nc1)C(F)(F)F` (stereo not drawn) [Example 1154, 3-(6-(4-(3H-imidazo[4,5-b]pyridin-7-yl)-1H-pyrazol-1-yl)pyridin-3-yl)-4,4,4-trifluorobutan-1-ol], the IC50 at Recombinant TYK2 was above 0.5 µM; on Recombinant JAK2, below 0.1 µM; in test [1] (HT2, HT-2 cells), above 0.5 µM; at Recombinant JAK1, below 0.1 µM; in test [2] (Homo sapiens, TF-1, TF-1 cells), above 0.5 µM; in test [3] it was above 1 µM. Also, the IC50 at Recombinant JAK3 was below 0.1 µM.

For `CNCCC(c1ccc(-n2cc(-c3ccnc4[nH]cnc34)cn2)nc1)C(F)(F)F` (stereo not drawn) [Example 1198, 3-(6-(4-(3H-imidazo[4,5-b]pyridin-7-yl)-1H-pyrazol-1-yl)pyridin-3-yl)-4,4,4-trifluoro-N-methylbutan-1-amine], the IC50 was above 0.5 µM at Recombinant TYK2; below 0.1 µM at Recombinant JAK2; 0.6 µM in test [1] (HT-2 cells); below 0.1 µM at Recombinant JAK1; 0.1 µM in test [2] (TF-1 cells); 1 µM in test [3]. The IC50 on Recombinant JAK3 is below 0.1 µM.

As for `CC(C)NC(=O)CCC(O)(c1ccc(-n2cc(-c3ccnc4[nH]cnc34)cn2)nc1)C(F)(F)F` (stereo not drawn) [Example 1238, 4-(6-(4-(3H-imidazo[4,5-b]pyridin-7-yl)-1H-pyrazol-1-yl)pyridin-3-yl)-5,5,5-trifluoro-4-hydroxy-N-isopropylpentanamide], the IC50 at Recombinant TYK2 is above 0.1 µM; at Recombinant JAK2 it was above 0.03 µM; in test [1] (HT2, HT-2 cells) it was above 0.1 µM; at Recombinant JAK1 it was 0.003 µM; in test [2] (Homo sapiens, TF-1, TF-1 cells), above 0.1 µM; in test [3], 1 µM.

On to `O=C(CCC(c1ccc(-n2cc(-c3ccnc4[nH]cnc34)cn2)nc1)C(F)(F)F)NC1CC1` (stereo not drawn) [Example 1150, 4-(6-(4-(3H-imidazo[4,5-b]pyridin-7-yl)-1H-pyrazol-1-yl)pyridin-3-yl)-N-cyclopropyl-5,5,5-trifluoropentanamide], for which the IC50 is above 1 µM on Recombinant TYK2; below 0.1 µM at Recombinant JAK2; above 1 µM in test [1] (HT2, HT-2 cells); below 0.1 µM on Recombinant JAK1; above 0.5 µM in test [2] (Homo sapiens, TF-1, TF-1 cells); above 1 µM in test [3]. Besides, at Recombinant JAK3, the IC50 is below 0.1 µM.

In the case of `CS(=O)(=O)CCC(O)(c1ccc(-n2cc(-c3ccnc4[nH]cnc34)cn2)nc1)C(F)(F)F` (stereo not drawn) [Example 1223, 2-(6-(4-(3H-imidazo[4,5-b]pyridin-7-yl)-1H-pyrazol-1-yl)pyridin-3-yl)-1,1,1-trifluoro-4-(methylsulfonyl)butan-2-ol], the IC50 is 0.39 µM at Recombinant TYK2; 0.015 µM at Recombinant JAK2; above 0.5 µM in test [1] (HT2, HT-2 cells); 0.002 µM at Recombinant JAK1; above 0.1 µM in test [2] (Homo sapiens, TF-1, TF-1 cells); above 1 µM in test [3]. The IC50 at Recombinant JAK3 worked out at 0.004 µM.

For the compound `CS(=O)(=O)NCCC(c1ccc(-n2cc(-c3ccnc4[nH]cnc34)cn2)nc1)C(F)(F)F` (stereo not drawn) [Example 1143, N-(3-(6-(4-(3H-imidazo[4,5-b]pyridin-7-yl)-1H-pyrazol-1-yl)pyridin-3-yl)-4,4,4-trifluorobutyl)methanesulfonamide], the IC50 on Recombinant TYK2 was above 1 µM; at Recombinant JAK2, below 0.1 µM; in test [1] (HT2, HT-2 cells), 0.67 µM; on Recombinant JAK1, below 0.1 µM; in test [2] (Homo sapiens, TF-1, TF-1 cells), 0.47 µM; in test [3] it was below 1 µM. For the same compound, on Recombinant JAK3, the IC50 was below 0.1 µM.

For `CNS(=O)(=O)CCC(c1ccc(-n2cc(-c3ccnc4[nH]cnc34)cn2)nc1)C(F)(F)F` (stereo not drawn) [Example 1142, 3-(6-(4-(3H-imidazo[4,5-b]pyridin-7-yl)-1H-pyrazol-1-yl)pyridin-3-yl)-4,4,4-trifluoro-N-methylbutane-1-sulfonamide], the IC50 at Recombinant TYK2 is above 1 µM; in test [1] (HT2, HT-2 cells), above 0.5 µM; at Recombinant JAK1, below 0.1 µM; in test [2] (Homo sapiens, TF-1, TF-1 cells), above 0.5 µM; in test [3], above 1 µM; at Recombinant JAK3 it was below 0.1 µM.
